Experiment [1] concerns the target T1, glutathione-S-transferase (GST) tagged LXRalpha LBD (ligand binding domain) (Homo sapiens, UniProt Q13133).
T1 construct: purchased Invitrogen pv4655
T1 sequence (Q13133 209-447 limits assumed): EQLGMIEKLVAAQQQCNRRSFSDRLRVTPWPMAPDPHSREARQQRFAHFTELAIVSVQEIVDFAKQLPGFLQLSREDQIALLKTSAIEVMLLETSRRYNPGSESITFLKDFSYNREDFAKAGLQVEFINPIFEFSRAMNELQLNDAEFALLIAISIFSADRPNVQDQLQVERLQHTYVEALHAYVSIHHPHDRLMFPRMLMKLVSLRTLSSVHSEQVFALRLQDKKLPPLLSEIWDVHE
The experiment can be described thus: LanthaScreen TR-FRET Liver X Receptor Coactivator Assay, co-activator recruitment to LXRalpha LBD. The format is biochemical. The settings on record: for Emax: efficacy at max dose, in relation to reference dual agonist T0901317, read-out: LXR alpha Activity @ max dose (%); for EC50 / LXR alpha IP (nM): potency (Inflection Point, IP), co-activator recruitment to LXRalpha LBD, in relation to T0901317; for EC50: read-out: LXR alpha IP. In outline: (§1)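 GST-tagged LBD added to test compound, then fluorescein-labelled coactivator peptide plus terbium anti-GST antibody; incubated at room temperature, TR-FRET read. Potency given as inflection point and efficacy as Emax relative to reference dual agonist T0901317.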

Experiment [2] deals with T2, glutathione-S-transferase (GST) tagged LXRbeta LBD (ligand binding domain) (Homo sapiens, UniProt P55055).
T2 construct: purchased Invitrogen pv4658.pps
T2 sequence (P55055 222-460 limits assumed): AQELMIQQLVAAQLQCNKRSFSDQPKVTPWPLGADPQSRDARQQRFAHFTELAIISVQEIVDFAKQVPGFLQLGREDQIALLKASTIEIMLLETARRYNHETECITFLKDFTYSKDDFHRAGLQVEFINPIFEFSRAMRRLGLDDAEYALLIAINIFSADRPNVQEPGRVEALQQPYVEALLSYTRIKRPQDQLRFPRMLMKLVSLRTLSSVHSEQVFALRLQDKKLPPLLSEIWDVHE
The experiment can be described thus: LanthaScreen TR-FRET Liver X Receptor Coactivator Assay, co-activator recruitment to LXRbeta LBD. In kind it is biochemical. The following applies: for Emax: efficacy at max dose, in relation to reference dual agonist T0901317, read-out: LXR beta Activity @ max dose (%); for EC50: potency (Inflection Point, IP), co-activator recruitment to LXRbeta LBD, in relation to T0901317, read-out: LXR beta IP. In outline: as §1
For orientation: Time-resolved FRET reads energy transfer from a long-lived donor to a nearby acceptor.

SMILES strings stand for the structures.

The results in this text go back to US10752587B2, “Homobispiperidinyl derivatives as liver X receptor beta agonists, compositions and their use” (Merck Sharp & Dohme Corp., priority 2015, dated 2020).

Regarding `CN(C)C(=O)c1ccc(N2CCC(CC3(C)CCN(C(=O)[C@](O)(c4ccccc4)C(F)(F)F)CC3)CC2)cc1Cl` [Example 2-44, 2-chloro-N,N-dimethyl-4-[4-({4-methyl-1-[(2R)-3,3,3-trifluoro-2-hydroxy-2-phenyl-propanoyl]piperidin-4-yl}methyl)piperidin-1-yl]benzamide], in experiment [1], the Emax was 20% and the EC50 came to 32 nM. For the same compound, in experiment [2], the Emax stood at 37% and the EC50 was found to be 1 nM.
Consider `COc1cccc([C@@](O)(C(=O)N2CCC(CC3CCN(c4ccc(C(=O)N(C)C)c(C)n4)CC3)CC2)C(F)(F)F)c1` [Example 7-5, N,N,2-trimethyl-6-[4-({1-[(2R)-3,3,3-trifluoro-2-hydroxy-2-(3-methoxyphenyl)propanoyl]piperidin-4-yl}methyl)piperidin-1-yl]pyridine-3-carboxamide], for which, in experiment [1], the Emax turned out to be 8% and the “LXR alpha IP (nM)” value is reported as “NO IP”. Also, in experiment [2], the Emax was 69% and the EC50 was 25 nM.
On to `CN(C)C(=O)c1ccc(N2CCC(CC3CCN(C(=O)C(O)(c4cc(F)cc(Cl)c4)C(F)(F)F)CC3)CC2)nc1Cl` (centres unmarked) [Example 7-109, 2-chloro-6-[4-({1-[2-(3-chloro-5-fluorophenyl)-3,3,3-trifluoro-2-hydroxypropanoyl]piperidin-4-yl}methyl)piperidin-1-yl]-N,N-dimethyl-pyridine-3-carboxamide], for which the Emax in experiment [1] came to 52%; in experiment [2], 107%. The EC50 in experiment [1] stood at 51 nM; in experiment [2], 4 nM.
As for `CN(C)C(=O)c1ccc(N2CCC(CC3CCN(C(=O)[C@](O)(c4cccc(F)c4)C(F)(F)F)CC3)CC2)nc1Cl` [Example 7-72, 2-chloro-N,N-dimethyl-6-[4-({1-[(2R)-3,3,3-trifluoro-2-(3-fluorophenyl)-2-hydroxypropanoyl]piperidin-4-yl}methyl)piperidin-1-yl]pyridine-3-carboxamide], the Emax in experiment [1] was 50%; in experiment [2] it was 91%. Also, the EC50 is 88 nM in experiment [1] and 3 nM in experiment [2].
For `CCc1cccc([C@@](O)(C(=O)N2CCC(CC3CCN(c4ccc(C(N)=O)c(Cl)c4)CC3)CC2)C(F)(F)F)c1` [Example 12-6, 2-chloro-4-[4-({1-[(2R)-2-(3-ethylphenyl)-3,3,3-trifluoro-2-hydroxy-propanoyl]piperidin-4-yl}methyl)piperidin-1-yl]benzamide], in that order: 23%, 40%, 30 nM and 7 nM.
Regarding `CN(C)C(=O)c1ccc(N2CCC(CC3CN(C(=O)[C@](O)(c4ccccc4)C(F)(F)F)C3)CC2)cc1Cl` [Example 2-58, 2-chloro-N,N-dimethyl-4-[4-({1-[(2R)-3,3,3-trifluoro-2-hydroxy-2-phenylpropanoyl]azetidin-3-yl}methyl)piperidin-1-yl]benzamide], the Emax was determined as 38% in experiment [1] and 88% in experiment [2]. The EC50 in experiment [1] was found to be 951 nM; in experiment [2], 16 nM.
For `CN(C)C(=O)c1ccc(N2CCC(CC3CCN(C(=O)[C@](O)(c4cccc(C(F)(F)F)c4)C(F)(F)F)CC3)CC2)cc1` [Example 2-136, N,N-dimethyl-4-{4-[(1-{(2R)-3,3,3-trifluoro-2-hydroxy-2-[3-(trifluoromethyl)phenyl]propanoyl}piperidin-4-yl)methyl]piperidin-1-yl}benzamide], in that order: 20%, 64%, 714 nM and 69 nM.
The matching figures for `CN(C)C(=O)c1ccc(N2CCC(CC3CCN(C(=O)C(O)(Cc4ccccc4)C(F)(F)F)CC3)CC2)cc1Cl` (centres unmarked) [Example 2-36, 4-(4-{[1-(2-benzyl-3,3,3-trifluoro-2-hydroxy-propanoyl)piperidin-4-yl]methyl}piperidin-1-yl)-2-chloro-N,N-dimethyl-benzamide]: 43%, 126%, 1060 nM and 110 nM.
`CN(C)C(=O)c1ccc(N2CCC(CC3CCN(C(=O)[C@](O)(c4cccc(O)c4)C(F)(F)F)CC3)CC2)cc1Cl` [Example 2-87, 2-chloro-N,N-dimethyl-4-[4-({1-[(2R)-3,3,3-trifluoro-2-hydroxy-2-(3-hydroxyphenyl)propanoyl]piperidin-4-yl}methyl)piperidin-1-yl]benzamide]: in experiment [1], the Emax worked out at 14% and the “LXR alpha IP (nM)” value was “NO IP”. In experiment [2], the Emax was 74% and the EC50 amounted to 19 nM.
The matching figures for `COc1cccc([C@@](O)(C(=O)N2CCC(SC3CCN(c4ccc(C(=O)N(C)C)c(Cl)n4)CC3)CC2)C(F)(F)F)c1` [Example 9-2, 2-chloro-N,N-dimethyl-6-[4-({1-[(2R)-3,3,3-trifluoro-2-hydroxy-2-(3-methoxyphenyl)-propanoyl]piperidin-4-yl}sulfanyl)-piperidin-1-yl]-pyridine-3-carboxamide]: 7%, “NO IP”, 70% and 14 nM.
As for `COc1cccc([C@@](O)(C(=O)N2CCC(CC3CN(c4ccc(C(=O)N(C)C)c(C5CC5)n4)C3)CC2)C(F)(F)F)c1` [Example 7-15, 2-cyclopropyl-N,N-dimethyl-6-[3-({1-[(2R)-3,3,3-trifluoro-2-hydroxy-2-(3-methoxyphenyl)propanoyl]piperidin-4-yl}methyl)azetidin-1-yl]pyridine-3-carboxamide], in experiment [1], the Emax was found to be 0% and the “LXR alpha IP (nM)” value is reported as “NO IP”. Also, in experiment [2], the Emax is 91% and the EC50 turned out to be 1430 nM.
On to `COc1cc(F)cc([C@@](O)(C(=O)N2CC(CC3CCN(c4ccc(C(=O)N(C)C)c(Cl)c4)CC3)C2)C(F)(F)F)c1` [Example 2-61, 2-chloro-N,N-dimethyl-4-[4-({1-[(2R)-3,3,3-trifluoro-2-(3-fluoro-5-methoxyphenyl)-2-hydroxy-propanoyl]azetidin-3-yl}methyl)piperidin-1-yl]benzamide], for which, in experiment [1], the Emax came out at 21% and the EC50 came to 277 nM. Also, in experiment [2], the Emax was 74% and the EC50 came to 7 nM.
For `CNC(=O)c1ccc(N2CCC(CC3CCN(C(=O)[C@](O)(c4cccc(C(F)(F)F)c4)C(F)(F)F)CC3)CC2)nc1Cl` [Example 7-150, 2-chloro-N-methyl-6-{4-[(1-{(2R)-3,3,3-trifluoro-2-hydroxy-2-[3-(trifluoromethyl)phenyl]propanoyl}piperidin-4-yl)methyl]piperidin-1-yl}pyridine-3-carboxamide], in that order: 42%, 256 nM, 84% and 24 nM.
For `COc1cccc(C(=O)C(=O)N2CCC(CC3CCN(c4ccc(C(=O)N(C)C)c(Cl)c4)CC3)CC2)c1` [Example 2-104, 2-chloro-4-[4-({1-[(3-methoxyphenyl) (oxo)acetyl]piperidin-4-yl}methyl)piperidin-1-yl]-N,N-dimethyl-benzamide], in experiment [1], the Emax turned out to be 3% and the “LXR alpha IP (nM)” value is on record as “NO IP”. Besides, in experiment [2], the Emax turned out to be 31% and the EC50 was 409 nM.
In the case of `CC(C)Oc1cccc([C@@](O)(C(=O)N2CCC(CC3CCN(c4ccc(C(=O)N(C)C)c(Cl)n4)CC3)CC2)C(F)(F)F)c1` [Example 7-91, 2-chloro-N,N-dimethyl-6-{4-[(1-{(2R)-3,3,3-trifluoro-2-hydroxy-2-[3-(1-methylethoxy)phenyl]propanoyl}piperidin-4-yl)methyl]piperidin-1-yl}pyridine-3-carboxamide], in experiment [1], the Emax turned out to be 14% and the “LXR alpha IP (nM)” value was “NO IP”. Besides, in experiment [2], the Emax was 58% and the EC50 is 8 nM.
For the compound `Cc1cc(N2CCC(CC3CCN(C(=O)[C@](O)(c4ccccc4)C(F)(F)F)CC3)CC2)ncc1C(=O)N(C)C` [Example 7-3, N,N,4-trimethyl-6-[4-({1-[(2R)-3,3,3-trifluoro-2-hydroxy-2-phenylpropanoyl]piperidin-4-yl}methyl)piperidin-1-yl]pyridine-3-carboxamide], in experiment [1], the Emax was 23% and the EC50 was 2180 nM. In experiment [2], the Emax is 71% and the EC50 amounted to 153 nM.
In the case of `O=C(c1ccc(N2CCC(CC3CCN(C(=O)[C@](O)(c4ccccc4)C(F)(F)F)CC3)CC2)cc1Cl)N1C2CCC1CC2` [Example 4-5, (2R)-3-[4-({1-[4-(7-azabicyclo[2.2.1]hept-7-ylcarbonyl)-3-chlorophenyl]piperidin-4-yl}methyl)piperidin-1-yl]-1,1,1-trifluoro-3-oxo-2-phenylpropan-2-ol], the Emax in experiment [1] is 29%; in experiment [2] it was 53%. Moreover, the EC50 in experiment [1] is 401 nM; in experiment [2], 59 nM.
